This is an account of results in ChEMBL document CHEMBL4619725, “Ultrasounds-mediated 10-seconds synthesis of chalcones as potential farnesyltransferase inhibitors” (Bioorg Med Chem Lett, 2020).

SMILES strings stand for the structures. Calls of active or inactive are those of the source. The rule behind the calls is not given here.

As a reminder, the inhibition is how much of the control response was suppressed. For orientation: IC50 means the concentration that inhibits the measured activity by half.

Experiment [1] is filed under the species Homo sapiens. The experiment can be described thus: Inhibition of C-terminal His6-tagged human recombinat FTase expressed in Escherichia coli BL21 RIL (DE3) cells using Dansyl-GCVLS peptide and farnesyl pyrophosphate as substrate at 100 uM measured for 15 mins by fluorimetric analysis relative to control.
Experiment [2] concerns LOX IMVI. The experiment in a line: Cytostatic activity against human LOXIMVI cells assessed as growth inhibition at 10 uM incubated for 48 hrs by sulforhodamine B assay relative to control. The conditions noted are these: for inhibition of growth at 10 µM: read-out: GI. The experiment is classed as functional.
In experiment [3] the test system is NCI-H522. The experiment in a line: Cytostatic activity against human NCI-H522 cells assessed as growth inhibition at 10 uM incubated for 48 hrs by sulforhodamine B assay relative to control. It is filed as functional. The conditions noted are these: NCI-H522, 48 h, read-out: GI. Background: The SRB assay estimates cell density from bound dye.
Experiment [4] has as its system HCT-116. The experiment can be described thus: Cytostatic activity against human HCT116 cells assessed as growth inhibition at 10 uM incubated for 48 hrs by sulforhodamine B assay relative to control. It is filed as functional. The conditions noted are these: for inhibition of growth at 10 µM: HCT-116, 48 h, read-out: GI.
The test system of experiment [5] is SW-620. The experiment can be described thus: Cytostatic activity against human SW620 cells assessed as growth inhibition at 10 uM incubated for 48 hrs by sulforhodamine B assay relative to control. It is filed as functional. The settings on record: for inhibition of growth at 10 µM: SW-620, 48 h, read-out: GI.
The test system of experiment [6] is K562. The experiment can be described thus: Cytostatic activity against human K562 cells assessed as growth inhibition at 10 uM incubated for 48 hrs by sulforhodamine B assay relative to control. It is filed as functional. The settings on record: K562, 48 h, read-out: GI.
Experiment [7] relates to RPMI-8226. The experiment in a line: Cytostatic activity against human RPMI8226 cells assessed as growth inhibition at 10 uM incubated for 48 hrs by sulforhodamine B assay relative to control. It is filed as functional. The settings on record: RPMI-8226, 48 h, read-out: GI.
Experiment [8] has as its system CCRF-CEM. The experiment in a line: Cytostatic activity against human CCRF-CEM cells assessed as growth inhibition at 10 uM incubated for 48 hrs by sulforhodamine B assay relative to control. The experiment is classed as functional. The settings on record: read-out: GI.
Experiment [9] relates to SR. The experiment can be described thus: Cytostatic activity against human SR cells assessed as growth inhibition at 10 uM incubated for 48 hrs by sulforhodamine B assay relative to control. The experiment is classed as functional. The settings on record: read-out: GI.
The subject of experiment [10] is KM12. The experiment in a line: Cytostatic activity against human KM12 cells assessed as growth inhibition at 10 uM incubated for 48 hrs by sulforhodamine B assay relative to control. The conditions noted are these: for inhibition of growth at 10 µM: KM12, 48 h, read-out: GI. It is filed as functional.
Experiment [11] relates to OVCAR-3. The experiment can be described thus: Cytostatic activity against human OVCAR3 cells assessed as growth inhibition at 10 uM incubated for 48 hrs by sulforhodamine B assay relative to control. The experiment is classed as functional. The conditions noted are these: for inhibition of growth at 10 µM: OVCAR-3, 48 h, read-out: GI.
In experiment [12] the test system is MCF7. The experiment can be described thus: Cytostatic activity against human MCF7 cells assessed as growth inhibition at 10 uM incubated for 48 hrs by sulforhodamine B assay relative to control. The settings on record: MCF7, 48 h, read-out: GI. The experiment is classed as functional.
Experiment [13] in a line: Inhibition of C-terminal His6-tagged human recombinat FTase expressed in Escherichia coli BL21 RIL (DE3) cells using Dansyl-GCVLS peptide and farnesyl pyrophosphate as substrate measured for 15 mins by fluorimetric analysis.

Turning to `O=C(CC(CC(=O)c1ccc(Cl)nc1)c1ccc(Cl)nc1)c1ccc(Cl)nc1`, the inhibition in experiment [1] was determined as 4%.
Consider `O=C(/C=C/c1cccs1)c1ccc(Cl)nc1`, for which the “growth inhibition (GI)” value in experiment [2], in experiment [5], in [10] and in experiment [11] was “inactive” throughout. The inhibition of growth at 10 µM in experiment [3] amounted to 18%; in [4] it was 8.9%; in [6], 2.9%; in [7], 95.8%; in experiment [8] it was 8.6%; in experiment [9], 17.5%. The inhibition of growth at 10 µM in experiment [12] turned out to be 32.3%.
Regarding `CCOc1ccc(C(=O)/C=C/c2cccs2)cn1`, the IC50 in experiment [13] is 24.9 µM. Also, the inhibition in [1] came to 86%.
`O=C(CC(CC(=O)c1ccc(Cl)nc1)c1cccs1)c1ccc(Cl)nc1`: in experiment [1], the inhibition was found to be 19%.
Regarding `O=C(CC(O)c1cccs1)c1cccs1` (racemic), the half-maximal inhibitory concentration (IC50) in [13] was 0.6 µM. For the same molecule, the inhibition in experiment [1] worked out at 86%.
On to `O=C(/C=C/c1ccc(Cl)cc1Cl)c1ccc(Cl)nc1`, for which the inhibition of growth at 10 µM in experiment [2] was 65.1%; in experiment [3], 24.2%; in experiment [4], 56.6%; in [5], 7.9%; in experiment [6], 18.9%; in [7] it was 8.9%. Also, the inhibition of growth at 10 µM in [8] was 6.5%; in experiment [9], 55.7%; in experiment [10] it was 3.6%; in experiment [12], 63.4%. Also, the inhibition in experiment [1] was 39%. Besides, the “growth inhibition (GI)” value in [11] was “inactive”.
Take `O=C(/C=C/c1ccc(Cl)cc1Cl)c1ccc(Cl)cc1Cl`: the IC50 in experiment [13] was determined as 38.7 µM. Further, the inhibition in [1] is 69%.
Consider `O=C(/C=C/c1ccc(Cl)c(Cl)c1)c1ccc(Cl)nc1`, for which the inhibition of growth at 10 µM worked out at 21.9% in experiment [2]; 17% in experiment [3]; 19.3% in experiment [4]; 17.6% in [5]; 25.3% in [6]; 15.2% in experiment [8]. The inhibition of growth at 10 µM in [10] worked out at 32.4%; in experiment [11], 11.2%; in experiment [12] it was 69.8%. Moreover, the inhibition in [1] was 22%.
Take `O=C(/C=C/c1cccs1)c1cccs1`: the IC50 in [13] stood at 12 µM. Further, the inhibition in [1] is 100%.
As to `O=C(c1cccs1)[C@H]1[C@H](c2ccc(Cl)cc2Cl)[C@@H](C(=O)c2cccs2)[C@](O)(c2cccs2)C[C@@H]1c1ccc(Cl)cc1Cl`, the inhibition of growth at 10 µM is 3.1% in experiment [2]; 18.5% in experiment [3]; 21.2% in experiment [4]; 12.7% in experiment [5]; 16.5% in [6]; 26.8% in [7]. The inhibition of growth at 10 µM came out at 22.3% in [8]; 10% in experiment [9]; 4.7% in [10]; 11.5% in [11]; 18.3% in experiment [12]. Besides, in [1], the inhibition turned out to be 11%.
Consider `CCOc1ccc([C@]2(O)C[C@H](c3cccs3)[C@@H](C(=O)c3ccc(Cl)nc3)[C@H](c3cccs3)[C@H]2C(=O)c2ccc(Cl)nc2)cn1`, for which the inhibition in experiment [1] came out at 24%.
On to `O=C(CC(CC(=O)c1cccs1)c1ccc(Cl)cc1Cl)c1cccs1`, for which the inhibition of growth at 10 µM in [2] is 10.9%; in [3], 17.3%; in experiment [4] it was 34.7%; in experiment [5] it was 4.4%; in experiment [6], 25%; in [7] it was 17.3%. Moreover, the inhibition of growth at 10 µM came to 7.9% in [8], 9.7% in experiment [9], 4.8% in experiment [10] and 10.2% in experiment [12]. Further, the inhibition in [1] was 0%. Moreover, the “growth inhibition (GI)” value in [11] was “inactive”.
As for `CCCCCCCCCCCCCC/C(C(=O)O)=C(\C)C(=O)O` [CHAETOMELLIC ACID A], the IC50 in experiment [13] amounted to 0.18 µM. The inhibition in experiment [1] was found to be 100%.
As for `O=C(/C=C/c1ccc(Cl)c(Cl)c1)c1ccc(Cl)cc1Cl`, the inhibition in [1] came out at 53%.
For the molecule `O=C(/C=C/c1ccc(Cl)cc1Cl)c1cccs1`, the half-inhibitory concentration (IC50) in experiment [13] amounted to 25.8 µM. For the same molecule, in [1], the inhibition worked out at 84%.
In the case of `O=C(c1cccs1)[C@H]1[C@H](c2cccs2)[C@@H](C(=O)c2cccs2)[C@](O)(c2cccs2)C[C@@H]1c1cccs1`, the inhibition of growth at 10 µM in experiment [2] amounted to 7.8%; in experiment [3], 15.3%; in experiment [4] it was 6.1%; in [6], 14.5%; in [7], 17.7%; in experiment [8], 5%. Besides, the inhibition of growth at 10 µM was found to be 7.9% in experiment [9], 3.4% in experiment [10] and 12.2% in experiment [12]. Also, the “growth inhibition (GI)” value in experiment [5] and in experiment [11] was “inactive” in each case. Also, the inhibition in [1] was determined as 2%.
On to `O=C(/C=C/c1cccs1)c1ccc(Cl)cc1Cl`, for which the IC50 in [13] was 20.8 µM. Also, the inhibition in experiment [1] was 70%.
As to `O=C(/C=C/c1ccc(Cl)nc1)c1cccs1`, the inhibition of growth at 10 µM in experiment [2] worked out at 85%; in [3], 37.2%; in experiment [4], 35.5%; in experiment [5], 47.6%; in experiment [6] it was 65.8%; in experiment [8], 38.6%. Also, the inhibition of growth at 10 µM in [10] came out at 57.8%; in experiment [11], 45.8%; in experiment [12], 84.3%. Further, the inhibition in experiment [1] turned out to be 28%.
`O=C(/C=C/c1ccc(Cl)nc1)c1ccc(Cl)c(Cl)c1`: the inhibition of growth at 10 µM came out at 37.6% in experiment [2]; 45.8% in [3]; 55.1% in [4]; 40.1% in experiment [5]; 48.3% in [6]; 26.6% in experiment [8]. Further, the inhibition of growth at 10 µM was 44.4% in [10], 43.5% in experiment [11] and 66.4% in experiment [12]. Moreover, the inhibition in experiment [1] was found to be 54%.
In the case of `O=C(/C=C/c1ccc(Cl)nc1)c1ccc(Cl)nc1`, the “growth inhibition (GI)” value in experiment [2], in [4], in experiment [5] and in [11] was “inactive” each time. Moreover, the inhibition of growth at 10 µM in experiment [3] is 5.3%; in [6], 6.1%; in experiment [8], 3.1%; in experiment [10], 1%; in [12], 8.8%. The inhibition in experiment [1] came to 26%.
Take `CCOC(=O)c1cc(C(=O)/C=C/c2ccc3c(c2)Sc2ccccc2N3C)n2ccccc12`: the IC50 in experiment [13] was found to be 0.009 µM.
Same read-out and setting: the figure for `Cn1cncc1[C@@](N)(c1ccc(Cl)cc1)c1ccc2c(c1)c(-c1cccc(Cl)c1)cc(=O)n2C` [TIPIFARNIB] is 0.0079 µM.
